Results reported in ChEMBL document CHEMBL1201862, “PubChem BioAssay data set” (2004).
Activity calls are given as the source filed them.

Tests used:
[1] = CEM21 lymphoblast cell cytotoxicity, dose response, cytotoxicity control for viral fusion inhibitor project, CellTiter-Glo luminescence, cherry-picked (AID 652042); format: functional, cell-based;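 also: potency for signal decrease meaning cytotoxicity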
[2] = inhibitors of clade B AD8 Env fusion, dose response, cell-based, cherry-pick (AID 652062); format: functional;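 also: luciferase signal from cell-cell fusion driven by HIV-1 clade B AD8 Env; potency is for inhibitors of fusion seen as a drop in luminescence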
[3] = molecular target: Voltage-dependent T-type calcium channel subunit alpha-1H (Homo sapiens, UniProt O95180); format: functional;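 also: channel activity triggered by adding a high calcium stimulation buffer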
Chain of Voltage-dependent T-type calcium channel subunit alpha-1H (O95180 whole entry, the tested form may be a part): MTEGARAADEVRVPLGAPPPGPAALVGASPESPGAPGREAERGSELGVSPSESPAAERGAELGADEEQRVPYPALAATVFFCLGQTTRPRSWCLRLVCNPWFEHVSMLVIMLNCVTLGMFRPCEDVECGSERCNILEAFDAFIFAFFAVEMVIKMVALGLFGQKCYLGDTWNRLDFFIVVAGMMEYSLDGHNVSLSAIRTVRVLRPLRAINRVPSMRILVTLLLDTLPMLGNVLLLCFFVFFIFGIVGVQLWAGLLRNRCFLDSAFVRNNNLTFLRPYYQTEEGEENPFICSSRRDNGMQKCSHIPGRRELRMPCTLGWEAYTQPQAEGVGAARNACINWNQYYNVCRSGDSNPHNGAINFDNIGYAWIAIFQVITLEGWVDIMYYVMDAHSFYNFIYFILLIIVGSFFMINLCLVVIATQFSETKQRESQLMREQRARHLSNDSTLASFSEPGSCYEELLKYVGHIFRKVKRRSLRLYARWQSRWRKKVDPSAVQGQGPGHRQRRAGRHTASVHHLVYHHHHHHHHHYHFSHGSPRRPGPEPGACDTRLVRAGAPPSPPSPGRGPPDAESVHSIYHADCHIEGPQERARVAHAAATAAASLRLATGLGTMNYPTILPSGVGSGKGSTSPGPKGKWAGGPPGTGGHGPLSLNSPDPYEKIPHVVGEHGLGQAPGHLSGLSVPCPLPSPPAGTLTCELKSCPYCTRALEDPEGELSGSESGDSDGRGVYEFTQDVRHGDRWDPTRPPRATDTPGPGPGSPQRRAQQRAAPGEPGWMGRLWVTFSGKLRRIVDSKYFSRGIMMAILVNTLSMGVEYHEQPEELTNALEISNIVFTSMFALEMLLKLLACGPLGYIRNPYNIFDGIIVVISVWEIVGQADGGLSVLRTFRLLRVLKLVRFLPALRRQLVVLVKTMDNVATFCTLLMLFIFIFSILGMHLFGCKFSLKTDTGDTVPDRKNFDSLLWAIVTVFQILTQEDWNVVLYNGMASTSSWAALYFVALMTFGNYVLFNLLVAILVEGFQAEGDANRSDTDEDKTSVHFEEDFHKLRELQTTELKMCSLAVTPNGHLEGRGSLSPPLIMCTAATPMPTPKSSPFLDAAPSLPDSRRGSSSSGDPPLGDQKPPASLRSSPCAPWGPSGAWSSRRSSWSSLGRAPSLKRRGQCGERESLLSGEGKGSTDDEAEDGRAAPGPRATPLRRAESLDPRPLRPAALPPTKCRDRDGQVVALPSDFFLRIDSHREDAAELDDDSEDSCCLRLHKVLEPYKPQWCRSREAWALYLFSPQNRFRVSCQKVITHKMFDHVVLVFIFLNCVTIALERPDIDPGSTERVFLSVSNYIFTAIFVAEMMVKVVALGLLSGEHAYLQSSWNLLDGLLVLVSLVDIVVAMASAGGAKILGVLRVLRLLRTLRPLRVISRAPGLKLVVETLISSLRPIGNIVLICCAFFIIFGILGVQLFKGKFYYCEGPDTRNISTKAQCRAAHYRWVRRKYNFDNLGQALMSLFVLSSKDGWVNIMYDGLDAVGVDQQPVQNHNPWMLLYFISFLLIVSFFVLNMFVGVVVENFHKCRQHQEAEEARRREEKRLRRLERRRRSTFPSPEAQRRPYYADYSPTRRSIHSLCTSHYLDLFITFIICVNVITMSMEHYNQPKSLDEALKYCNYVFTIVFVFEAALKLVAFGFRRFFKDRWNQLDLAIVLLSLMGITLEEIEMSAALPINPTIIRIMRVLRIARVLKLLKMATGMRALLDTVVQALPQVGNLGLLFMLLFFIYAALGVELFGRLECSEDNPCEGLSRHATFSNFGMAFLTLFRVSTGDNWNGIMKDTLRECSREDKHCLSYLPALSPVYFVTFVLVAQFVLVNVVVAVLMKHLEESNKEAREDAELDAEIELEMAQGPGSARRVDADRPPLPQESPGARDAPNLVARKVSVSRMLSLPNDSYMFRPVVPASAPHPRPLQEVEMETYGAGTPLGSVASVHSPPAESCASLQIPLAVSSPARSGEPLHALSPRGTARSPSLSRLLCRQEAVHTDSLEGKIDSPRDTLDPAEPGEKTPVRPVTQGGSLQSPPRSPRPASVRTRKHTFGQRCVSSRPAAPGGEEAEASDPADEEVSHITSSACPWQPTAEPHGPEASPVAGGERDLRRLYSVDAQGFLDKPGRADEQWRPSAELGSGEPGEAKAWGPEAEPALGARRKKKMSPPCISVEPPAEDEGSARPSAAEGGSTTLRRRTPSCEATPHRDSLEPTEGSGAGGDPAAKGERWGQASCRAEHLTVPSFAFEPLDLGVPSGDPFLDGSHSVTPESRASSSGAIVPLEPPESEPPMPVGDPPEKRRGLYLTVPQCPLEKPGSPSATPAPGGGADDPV

[4] = inhibitors of HIV Env-driven cell fusion, dose response, cherry-pick (AID 652057); format: functional, cell-based
HEK293 [5] = assay: NOD2 signaling inhibitors in MDP-stimulated cells, cell-based, uHTS, luminescence (AID 2001); format: functional; settings: Homo sapiens
HEK293 [6] = assay: cells; format: functional, cell-based; settings: Homo sapiens
HEK293 [7] = assay: NOD1 signaling inhibitors, primary screen, cell-based, luminescence, uHTS (AID 1578); format: functional; settings: Homo sapiens
HEK293 [8] = assay: cells; format: functional, cell-based; settings: Homo sapiens; remark: listed apart in the source
[9] = molecular target: T1, Ubiquitin-conjugating enzyme E2 N (Homo sapiens, UniProt P61088); format: functional;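 also: Dose-response confirmation in a TR-FRET assay detecting UBC13-driven polyubiquitin chain formation, inhibition measured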
T1 sequence (P61088 whole entry): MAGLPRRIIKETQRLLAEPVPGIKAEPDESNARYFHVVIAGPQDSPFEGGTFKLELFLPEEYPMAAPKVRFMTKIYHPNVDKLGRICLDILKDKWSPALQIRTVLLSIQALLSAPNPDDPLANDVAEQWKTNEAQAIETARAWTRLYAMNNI

[10] = molecular target: T2, Replicative DNA helicase DnaB (Mycobacterium tuberculosis, UniProt P9WMR3); assay: DnaB intein splicing inhibitors, dose response, biochemical, cell-free fluorescence (AID 449749); format: functional
T2 sequence (P9WMR3 whole entry): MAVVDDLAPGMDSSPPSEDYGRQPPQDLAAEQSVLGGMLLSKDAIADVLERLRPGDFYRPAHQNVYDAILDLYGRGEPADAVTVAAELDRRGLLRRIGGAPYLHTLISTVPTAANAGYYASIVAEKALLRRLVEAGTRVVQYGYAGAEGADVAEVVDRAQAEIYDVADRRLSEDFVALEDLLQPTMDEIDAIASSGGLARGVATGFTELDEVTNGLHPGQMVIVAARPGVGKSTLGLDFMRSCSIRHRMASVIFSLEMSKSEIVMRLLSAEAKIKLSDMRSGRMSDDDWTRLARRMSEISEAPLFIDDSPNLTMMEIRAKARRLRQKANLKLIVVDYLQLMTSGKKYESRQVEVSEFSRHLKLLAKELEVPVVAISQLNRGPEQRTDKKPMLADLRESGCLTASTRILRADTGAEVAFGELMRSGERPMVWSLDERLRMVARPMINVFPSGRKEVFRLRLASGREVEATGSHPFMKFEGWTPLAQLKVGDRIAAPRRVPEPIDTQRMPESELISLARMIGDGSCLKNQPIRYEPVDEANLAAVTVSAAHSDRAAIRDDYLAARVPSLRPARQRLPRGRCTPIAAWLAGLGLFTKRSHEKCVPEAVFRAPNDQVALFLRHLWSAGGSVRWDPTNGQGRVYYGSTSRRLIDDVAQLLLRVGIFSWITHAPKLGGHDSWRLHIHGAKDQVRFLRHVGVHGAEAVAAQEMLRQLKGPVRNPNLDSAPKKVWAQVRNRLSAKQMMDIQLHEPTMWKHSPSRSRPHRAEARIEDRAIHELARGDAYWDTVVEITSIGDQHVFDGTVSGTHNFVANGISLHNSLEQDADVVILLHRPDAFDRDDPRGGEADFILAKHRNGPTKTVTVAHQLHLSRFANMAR

Aminopeptidase N = molecular target: T3, Aminopeptidase N (Plasmodium falciparum FcB1/Columbia, UniProt O96935); assay: P. falciparum M1AAP inhibitors, biochemical, fluorogenic H-Leu-NHMec substrate, 1536-well (AID 1445); design: species or system Plasmodium falciparum 3D7, 3D7
T3 sequence (O96935 whole entry): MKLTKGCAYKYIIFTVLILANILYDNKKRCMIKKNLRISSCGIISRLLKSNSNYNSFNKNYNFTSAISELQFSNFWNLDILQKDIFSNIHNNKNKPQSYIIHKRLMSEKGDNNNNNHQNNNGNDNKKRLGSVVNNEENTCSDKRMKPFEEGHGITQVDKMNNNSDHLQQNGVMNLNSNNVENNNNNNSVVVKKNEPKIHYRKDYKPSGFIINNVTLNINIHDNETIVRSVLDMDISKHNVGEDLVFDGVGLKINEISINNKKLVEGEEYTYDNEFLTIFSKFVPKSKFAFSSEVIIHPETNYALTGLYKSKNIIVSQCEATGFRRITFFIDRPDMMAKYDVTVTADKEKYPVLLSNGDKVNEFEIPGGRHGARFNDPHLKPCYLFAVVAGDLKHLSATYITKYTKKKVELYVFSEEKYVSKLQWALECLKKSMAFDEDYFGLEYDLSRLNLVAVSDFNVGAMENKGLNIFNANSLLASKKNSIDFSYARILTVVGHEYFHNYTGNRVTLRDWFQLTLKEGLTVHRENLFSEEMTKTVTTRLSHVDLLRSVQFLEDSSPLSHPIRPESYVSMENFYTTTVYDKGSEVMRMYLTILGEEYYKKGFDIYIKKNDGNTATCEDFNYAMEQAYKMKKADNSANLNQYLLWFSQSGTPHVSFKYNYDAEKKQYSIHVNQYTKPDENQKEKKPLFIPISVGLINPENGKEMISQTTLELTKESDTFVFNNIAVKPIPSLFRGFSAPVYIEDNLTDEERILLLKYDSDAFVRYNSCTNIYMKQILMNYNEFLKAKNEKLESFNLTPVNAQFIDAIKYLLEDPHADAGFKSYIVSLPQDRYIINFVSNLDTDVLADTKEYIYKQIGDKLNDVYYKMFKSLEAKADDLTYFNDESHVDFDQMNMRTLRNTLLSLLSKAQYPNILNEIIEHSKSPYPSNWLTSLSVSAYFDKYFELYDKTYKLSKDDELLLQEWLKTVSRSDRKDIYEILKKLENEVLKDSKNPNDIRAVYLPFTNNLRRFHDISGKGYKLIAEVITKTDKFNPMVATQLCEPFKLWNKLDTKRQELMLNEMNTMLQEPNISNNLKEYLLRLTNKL

Protein RecA = molecular target: T4, Protein RecA (Mycobacterium tuberculosis, UniProt P9WHJ3); assay: Fluorescence Cell-Free Homogeneous Dose Retest to Identify Inhibitors of RecA-Intein Splicing Activity. [Related pubchem assays (depositor defined):AID2097, AID2223, AID489010, AID492950]; format: functional
T4 sequence (P9WHJ3 whole entry): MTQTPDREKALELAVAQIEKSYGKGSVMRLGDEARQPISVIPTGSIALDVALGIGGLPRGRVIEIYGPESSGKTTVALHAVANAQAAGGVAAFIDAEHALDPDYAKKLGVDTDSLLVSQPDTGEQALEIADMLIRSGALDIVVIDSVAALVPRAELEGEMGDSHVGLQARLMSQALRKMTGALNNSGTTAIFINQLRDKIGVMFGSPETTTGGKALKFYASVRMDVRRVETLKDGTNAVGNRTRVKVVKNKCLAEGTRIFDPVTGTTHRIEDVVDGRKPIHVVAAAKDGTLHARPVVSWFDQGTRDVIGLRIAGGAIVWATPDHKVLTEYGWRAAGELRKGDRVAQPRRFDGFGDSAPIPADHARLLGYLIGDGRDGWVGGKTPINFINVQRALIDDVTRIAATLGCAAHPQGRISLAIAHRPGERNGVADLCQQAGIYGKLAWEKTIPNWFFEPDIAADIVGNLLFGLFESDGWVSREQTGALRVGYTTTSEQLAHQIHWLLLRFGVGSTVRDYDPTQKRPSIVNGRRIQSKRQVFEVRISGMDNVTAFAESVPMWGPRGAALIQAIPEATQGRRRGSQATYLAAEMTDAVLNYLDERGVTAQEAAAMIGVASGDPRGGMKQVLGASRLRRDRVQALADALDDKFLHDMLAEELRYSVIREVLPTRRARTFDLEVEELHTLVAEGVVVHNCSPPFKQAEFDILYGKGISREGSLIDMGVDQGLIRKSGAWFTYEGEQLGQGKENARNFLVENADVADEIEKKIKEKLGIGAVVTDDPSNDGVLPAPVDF

[11] = molecular target: Glyceraldehyde-3-phosphate dehydrogenase (Homo sapiens, UniProt P04406)
Chain of Glyceraldehyde-3-phosphate dehydrogenase (P04406 whole entry): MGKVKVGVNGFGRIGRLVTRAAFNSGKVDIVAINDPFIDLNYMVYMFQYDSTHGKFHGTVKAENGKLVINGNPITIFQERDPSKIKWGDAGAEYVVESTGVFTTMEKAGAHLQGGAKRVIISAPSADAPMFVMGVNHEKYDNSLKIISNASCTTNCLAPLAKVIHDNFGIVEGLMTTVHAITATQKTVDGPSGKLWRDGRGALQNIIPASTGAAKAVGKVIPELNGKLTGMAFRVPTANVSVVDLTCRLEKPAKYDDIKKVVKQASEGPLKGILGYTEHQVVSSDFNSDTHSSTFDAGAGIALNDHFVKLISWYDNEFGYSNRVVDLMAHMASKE

[12] = molecular target: T5, Alkaline phosphatase, tissue-nonspecific isozyme (Homo sapiens, UniProt P05186); assay: human TNAP enzyme inhibitors, SAR follow-up, biochemical, luminescent, dose response (AID 1056)
T5 sequence (P05186 whole entry): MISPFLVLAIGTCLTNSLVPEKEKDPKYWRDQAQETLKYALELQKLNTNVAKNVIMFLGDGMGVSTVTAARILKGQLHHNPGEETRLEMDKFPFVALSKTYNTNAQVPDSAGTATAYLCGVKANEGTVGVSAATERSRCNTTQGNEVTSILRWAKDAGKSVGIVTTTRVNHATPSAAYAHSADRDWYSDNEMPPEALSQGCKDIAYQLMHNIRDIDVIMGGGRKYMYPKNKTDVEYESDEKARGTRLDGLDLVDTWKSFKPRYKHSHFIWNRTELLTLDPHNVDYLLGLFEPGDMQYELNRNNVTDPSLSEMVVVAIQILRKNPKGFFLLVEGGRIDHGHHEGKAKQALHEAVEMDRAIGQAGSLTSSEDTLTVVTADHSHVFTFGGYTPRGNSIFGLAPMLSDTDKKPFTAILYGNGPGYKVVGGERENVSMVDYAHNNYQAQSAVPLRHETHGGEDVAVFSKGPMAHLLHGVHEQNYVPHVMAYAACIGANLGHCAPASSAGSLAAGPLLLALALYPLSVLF

Cytochrome P450 3A4 = Cytochrome P450 3A4 (Homo sapiens, UniProt P08684); settings: Potency;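 also: confirmatory qHTS run detecting inhibitors and substrates of CYP3A4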
Chain of Cytochrome P450 3A4 (P08684 whole entry): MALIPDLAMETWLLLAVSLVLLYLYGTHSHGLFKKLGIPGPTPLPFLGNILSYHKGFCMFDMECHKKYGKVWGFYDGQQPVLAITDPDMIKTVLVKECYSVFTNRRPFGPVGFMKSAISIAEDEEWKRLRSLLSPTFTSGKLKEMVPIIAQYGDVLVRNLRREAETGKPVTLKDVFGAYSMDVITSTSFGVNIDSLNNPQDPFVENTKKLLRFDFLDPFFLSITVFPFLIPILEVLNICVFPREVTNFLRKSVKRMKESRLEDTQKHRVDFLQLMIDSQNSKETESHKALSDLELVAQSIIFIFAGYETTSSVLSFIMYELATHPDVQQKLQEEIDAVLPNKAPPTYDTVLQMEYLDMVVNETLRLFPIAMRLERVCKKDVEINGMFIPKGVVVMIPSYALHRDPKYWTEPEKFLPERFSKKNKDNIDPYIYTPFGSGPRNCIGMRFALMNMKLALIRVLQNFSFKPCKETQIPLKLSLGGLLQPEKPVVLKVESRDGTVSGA

[13] = THP-1 cell cytotoxicity, dose response, cytotoxicity control for non-replicating M. tuberculosis project (AID 489025); format: functional
[14] = HepG2 cell cytotoxicity, dose response, cytotoxicity control for non-replicating M. tuberculosis project (AID 489018); format: functional; settings: Mycobacterium tuberculosis
cells = format: functional

**Q.** With Cc1cccc(N2CCN(C(=O)CCCSc3nc4ccccc4[nH]3)CC2)c1C as the molecule, how does the AC50 [1] read?
**A.** 50.8 µM (active)

**Q.** And the AC50 [2]?
**A.** 12.3 µM (active)

**Q.** What about the EC50 [3] of the same molecule?
**A.** 5.23 µM (active)

**Q.** And the AC50 [4]?
**A.** 46.1 µM (active)

**Q.** For CN(C(=O)C(C)(C)C)c1ccc(OCC(=O)N2CCc3ccccc3C2)cc1, which IC50 (HEK293 [5]) is on record?
**A.** 18.1 µM (inactive)

**Q.** What about the IC50 (HEK293 [6]) of the same molecule?
**A.** 12.9 µM (active)

**Q.** And the EC50 (HEK293 [7])?
**A.** 4.6 µM (active)

**Q.** What about the IC50 (HEK293 [8]) of the same molecule?
**A.** > 20 µM (inactive)

**Q.** Which IC50 [9] does the source give for COc1ccc(C[C@H]2CN3C(=NC[C@@H]3Cc3ccc(O)cc3)N2C[C@H](C)NC(=O)c2ccc(C)c(Br)c2)cc1 here?
**A.** > 20 µM (inactive)

**Q.** For COc1cc(Br)c(C2C(C#N)=C(N)Oc3[nH]nc(-c4cccnc4)c32)cc1OC (stereo unspecified), which AC50 [10] is on record?
**A.** 35 µM (active)

**Q.** What about the IC50 (Aminopeptidase N) of the same molecule?
**A.** 44.6 µM (active)

**Q.** What about the EC50 (Protein RecA) of the same molecule?
**A.** 8.6 µM (active)

**Q.** For COc1ccc(S(=O)(=O)Nc2cccnc2)cc1OC, which IC50 [11] is on record?
**A.** > 100 µM (not active)

**Q.** What about the IC50 [12] of the same molecule?
**A.** > 100 µM (inactive)

**Q.** Which AC50 (Cytochrome P450 3A4) does the source give for CCCN1[C@@H]2C[C@@H](O)CC[C@@H]2C[C@H]1C(=O)OC here?
**A.** 25.1 µM (inconclusive)

**Q.** With COc1ccc(-c2csc(NC(=O)C3=NN(c4ccccc4)C(=O)CC3)n2)cc1 as the molecule, how does the IC50 (HEK293 [5]) read?
**A.** 5.67 µM (inactive)

**Q.** What about the IC50 (HEK293 [6]) of the same molecule?
**A.** 5.51 µM (active)

**Q.** What about the EC50 (HEK293 [7]) of the same molecule?
**A.** 15.7 µM (active)

**Q.** And the IC50 (HEK293 [8])?
**A.** 17.5 µM (active)

**Q.** For C=CCc1ccc(OCC(O)COc2ccc(CC=C)cc2OC)c(OC)c1, which EC50 [3] is on record?
**A.** 6.12 µM (active)

**Q.** With COc1cc(/C=C/C(=O)c2cccs2)cc(OC)c1OC as the molecule, how does the AC50 (Cytochrome P450 3A4) read?
**A.** 3.16 µM (inconclusive)

**Q.** Which AC50 (Cytochrome P450 3A4) does the source give for c1ccc(-c2cc3c(nc2-c2ccccc2)CCNC3)cc1 here?
**A.** 5.01 µM (inconclusive)

**Q.** Which EC50 [3] does the source give for Cc1ccc(-n2ncc(C(=O)NCc3ccc4c(c3)OCO4)c2NC(=O)c2ccco2)cc1C here?
**A.** 1.89 µM (active)

**Q.** With COc1ccc(-c2csc(NC(C)c3nc4cc(C(=O)NCCCO)ccc4n3Cc3ccc(C)cc3)n2)cc1 (stereo unspecified) as the molecule, how does the IC50 [9] read?
**A.** > 20 µM (inactive)

**Q.** With CC(/C=C/c1ccco1)=N\NC(=O)c1cccc(Cl)c1 as the molecule, how does the CC50 [13] read?
**A.** > 40 µM (active)

**Q.** And the CC50 [14]?
**A.** > 20 µM (active)

**Q.** What about the IC50 (cells) of the same molecule?
**A.** 6.09 µM (active)

**Q.** For Clc1ccc(/C=N/Nc2nnn[nH]2)cc1, which IC50 (Aminopeptidase N) is on record?
**A.** 92.8 µM (active)

**Q.** What does the source list for Cc1ccc(-c2cc(C(=O)O)[nH]n2)cc1?
**A.** IC50 [11]: > 100 µM (not active); IC50 [12]: 8.71 µM (active)

**Q.** For COc1nc(N=C(N)N)nc2c(C)cccc12, which IC50 (Aminopeptidase N) is on record?
**A.** 22.2 µM (active)
